Reference: PubChem BioAssay (NCI)
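Grown in 96-well plates, cells were treated for 48 hours with each compound at five concentrations. Insufficient inhibition: endpoint recorded as highest concentration tested. TGI marks complete inhibition of growth.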

Tests used:
Assay in all cases: inhibition of tumour cell growth, NCI panel, 48 h
SF-268 CNS = tested on: SF-268 CNS
SN12C renal = tested on: SN12C renal
IGROV1 ovarian = tested on: IGROV1 ovarian
SK-MEL-28 melanoma = tested on: SK-MEL-28 melanoma
SR leukemia = tested on: SR leukemia
NCI-H23 lung = tested on: NCI-H23 lung
SK-OV-3 ovarian = tested on: SK-OV-3 ovarian
SNB-75 CNS = tested on: SNB-75 CNS
HOP-62 NSCLC = tested on: HOP-62 NSCLC
HCT-15 colon = tested on: HCT-15 colon
COLO 205 colon = tested on: COLO 205 colon
RXF 393 renal = tested on: RXF 393 renal
OVCAR-8 ovarian = tested on: OVCAR-8 ovarian
HS 578T breast = tested on: HS 578T breast
MOLT-4 leukemia = tested on: MOLT-4 leukemia
EKVX NSCLC = tested on: EKVX NSCLC
HT29 colon = tested on: HT29 colon
UACC-62 melanoma = tested on: UACC-62 melanoma
PC-3 prostate = tested on: PC-3 prostate
MALME-3M melanoma = tested on: MALME-3M melanoma
SF-295 CNS = tested on: SF-295 CNS
786-0 renal = tested on: 786-0 renal
HCC-2998 colon = tested on: HCC-2998 colon
MDA-N = tested on: MDA-N
OVCAR-5 ovarian = tested on: OVCAR-5 ovarian
SF-539 CNS = tested on: SF-539 CNS
A549 NSCLC = tested on: A549 NSCLC
BT-549 breast = tested on: BT-549 breast
TK-10 renal = tested on: TK-10 renal
SNB-19 CNS = tested on: SNB-19 CNS
MCF7 breast = tested on: MCF7 breast
RPMI-8226 leukemia = tested on: RPMI-8226 leukemia
CAKI-1 renal = tested on: CAKI-1 renal
NCI-H460 lung = tested on: NCI-H460 lung
A498 renal = tested on: A498 renal
SK-MEL-5 melanoma = tested on: SK-MEL-5 melanoma
UO-31 renal = tested on: UO-31 renal
HCT-116 colon = tested on: HCT-116 colon
DU-145 prostate = tested on: DU-145 prostate
K-562 leukemia = tested on: K-562 leukemia
OVCAR-3 ovarian = tested on: OVCAR-3 ovarian
NCI/ADR-RES ovarian = tested on: NCI/ADR-RES ovarian
T-47D breast = tested on: T-47D breast
LOX IMVI melanoma = tested on: LOX IMVI melanoma
MDA-MB-435 = tested on: MDA-MB-435
KM12 colon = tested on: KM12 colon
CCRF-CEM leukemia = tested on: CCRF-CEM leukemia
HL-60(TB) leukemia = tested on: HL-60(TB) leukemia
U251 CNS = tested on: U251 CNS
M14 melanoma = tested on: M14 melanoma
OVCAR-4 ovarian = tested on: OVCAR-4 ovarian
SW-620 colon = tested on: SW-620 colon
UACC-257 melanoma = tested on: UACC-257 melanoma
MDA-MB-231 breast = tested on: MDA-MB-231 breast
HOP-92 NSCLC = tested on: HOP-92 NSCLC
SK-MEL-2 melanoma = tested on: SK-MEL-2 melanoma
ACHN renal = tested on: ACHN renal
NCI-H226 lung = tested on: NCI-H226 lung
NCI-H522 lung = tested on: NCI-H522 lung

`Cc1ccc(O)c(C2=CC3=NNC(=O)C3C(c3cccc(Br)c3)C2)c1` (centres undefined) was tested. Which TGI (SF-268 CNS) did it give?
Its TGI is > 75 µM.

And the TGI (SN12C renal)?
Its TGI is 63.5 µM.

And the TGI (IGROV1 ovarian)?
The TGI was > 75 µM.

What about the TGI (SK-MEL-28 melanoma) of the same molecule?
Its TGI is > 75 µM.

And the TGI (SR leukemia)?
The TGI was > 75 µM.

What about the TGI (NCI-H23 lung) of the same molecule?
Its TGI is > 75 µM.

What about the TGI (SK-OV-3 ovarian) of the same molecule?
Its TGI is 63.9 µM.

What about the TGI (SNB-75 CNS) of the same molecule?
The TGI was 70 µM.

And the TGI (HOP-62 NSCLC)?
The TGI was > 75 µM.

What about the TGI (HCT-15 colon) of the same molecule?
The TGI was > 75 µM.

What about the TGI (COLO 205 colon) of the same molecule?
Its TGI is 22.8 µM.

What about the TGI (RXF 393 renal) of the same molecule?
The TGI was 28.2 µM.

And the TGI (OVCAR-8 ovarian)?
The TGI was 64.8 µM.

And the TGI (HS 578T breast)?
Its TGI is > 75 µM.

And the TGI (MOLT-4 leukemia)?
The TGI was > 75 µM.

What about the TGI (EKVX NSCLC) of the same molecule?
Its TGI is > 75 µM.

What about the TGI (HT29 colon) of the same molecule?
Its TGI is > 75 µM.

And the TGI (UACC-62 melanoma)?
The TGI was 70.9 µM.

What about the TGI (PC-3 prostate) of the same molecule?
The TGI was > 75 µM.

And the TGI (MALME-3M melanoma)?
The TGI was 71.1 µM.

And the TGI (SF-295 CNS)?
The TGI was 51.6 µM.

What about the TGI (786-0 renal) of the same molecule?
Its TGI is > 75 µM.

What about the TGI (HCC-2998 colon) of the same molecule?
The TGI was 31.7 µM.

And the TGI (MDA-N)?
The TGI was > 75 µM.

And the TGI (OVCAR-5 ovarian)?
The TGI was 68.5 µM.

And the TGI (SF-539 CNS)?
The TGI was > 75 µM.

What about the TGI (A549 NSCLC) of the same molecule?
Its TGI is > 75 µM.

What about the TGI (BT-549 breast) of the same molecule?
The TGI was 64.1 µM.

And the TGI (TK-10 renal)?
Its TGI is 41.3 µM.

What about the TGI (SNB-19 CNS) of the same molecule?
Its TGI is > 75 µM.

And the TGI (MCF7 breast)?
The TGI was 31.7 µM.

And the TGI (RPMI-8226 leukemia)?
Its TGI is 72.8 µM.

What about the TGI (CAKI-1 renal) of the same molecule?
Its TGI is > 75 µM.

What about the TGI (NCI-H460 lung) of the same molecule?
The TGI was > 75 µM.

What about the TGI (A498 renal) of the same molecule?
The TGI was > 75 µM.

What about the TGI (SK-MEL-5 melanoma) of the same molecule?
The TGI was > 75 µM.

And the TGI (UO-31 renal)?
Its TGI is > 75 µM.

And the TGI (HCT-116 colon)?
Its TGI is > 75 µM.

What about the TGI (DU-145 prostate) of the same molecule?
The TGI was > 75 µM.

And the TGI (K-562 leukemia)?
Its TGI is > 75 µM.

What about the TGI (OVCAR-3 ovarian) of the same molecule?
Its TGI is 68.7 µM.

What about the TGI (NCI/ADR-RES ovarian) of the same molecule?
Its TGI is > 75 µM.

And the TGI (T-47D breast)?
The TGI was > 75 µM.

And the TGI (LOX IMVI melanoma)?
The TGI was 27.3 µM.

What about the TGI (MDA-MB-435) of the same molecule?
The TGI was > 75 µM.

What about the TGI (KM12 colon) of the same molecule?
The TGI was 39.5 µM.

And the TGI (CCRF-CEM leukemia)?
Its TGI is > 75 µM.

And the TGI (HL-60(TB) leukemia)?
Its TGI is > 75 µM.

What about the TGI (U251 CNS) of the same molecule?
Its TGI is > 75 µM.

What about the TGI (M14 melanoma) of the same molecule?
Its TGI is > 75 µM.

What about the TGI (OVCAR-4 ovarian) of the same molecule?
The TGI was 37 µM.

What about the TGI (SW-620 colon) of the same molecule?
The TGI was > 75 µM.

What about the TGI (UACC-257 melanoma) of the same molecule?
The TGI was > 75 µM.

And the TGI (MDA-MB-231 breast)?
Its TGI is 59.4 µM.

And the TGI (HOP-92 NSCLC)?
Its TGI is > 75 µM.

And the TGI (SK-MEL-2 melanoma)?
The TGI was > 75 µM.

What about the TGI (ACHN renal) of the same molecule?
Its TGI is > 75 µM.

What does the source list for `COC(=O)c1cnc(Cl)c([N+](=O)[O-])c1`?
TGI (SF-268 CNS): 7.6 µM; TGI (SN12C renal): 25.8 µM; TGI (IGROV1 ovarian): 8.1 µM; TGI (SK-MEL-28 melanoma): 36 µM; TGI (SR leukemia): 4.24 µM; TGI (NCI-H23 lung): 35.2 µM; TGI (SK-OV-3 ovarian): 33.8 µM; TGI (SNB-75 CNS): 34.8 µM; TGI (HOP-62 NSCLC): 36.5 µM; TGI (NCI-H226 lung): 36.5 µM; TGI (HCT-15 colon): 4.21 µM; TGI (COLO 205 colon): 12.2 µM; TGI (RXF 393 renal): 25.1 µM; TGI (OVCAR-8 ovarian): 3.95 µM; TGI (HS 578T breast): 76.4 µM; TGI (EKVX NSCLC): 3.28 µM; TGI (HT29 colon): 32.6 µM; TGI (UACC-62 melanoma): 32.1 µM; TGI (PC-3 prostate): 22.6 µM; TGI (SF-295 CNS): 33.5 µM; TGI (786-0 renal): 11.2 µM; TGI (HCC-2998 colon): 21.5 µM; TGI (MDA-N): 20.1 µM; TGI (OVCAR-5 ovarian): 32 µM; TGI (SF-539 CNS): 32.1 µM; TGI (A549 NSCLC): 41.6 µM; TGI (BT-549 breast): 32.3 µM; TGI (TK-10 renal): 30.3 µM; TGI (SNB-19 CNS): 32.4 µM; TGI (MCF7 breast): 4.34 µM; TGI (RPMI-8226 leukemia): 5.3 µM; TGI (CAKI-1 renal): 25.7 µM; TGI (NCI-H460 lung): 31.5 µM; TGI (A498 renal): 40 µM; TGI (SK-MEL-5 melanoma): 27.2 µM; TGI (UO-31 renal): 3.55 µM; TGI (HCT-116 colon): 8.77 µM; TGI (DU-145 prostate): 21.3 µM; TGI (K-562 leukemia): 4.8 µM; TGI (OVCAR-3 ovarian): 28.7 µM; TGI (NCI/ADR-RES ovarian): 68.3 µM; TGI (T-47D breast): 4.68 µM; TGI (LOX IMVI melanoma): 3.68 µM; TGI (MDA-MB-435): 19.4 µM; TGI (KM12 colon): 35 µM; TGI (CCRF-CEM leukemia): 5.1 µM; TGI (HL-60(TB) leukemia): 5.73 µM; TGI (U251 CNS): 4.23 µM; TGI (M14 melanoma): 27 µM; TGI (OVCAR-4 ovarian): 36.6 µM; TGI (SW-620 colon): 4.78 µM; TGI (UACC-257 melanoma): 20.3 µM; TGI (NCI-H522 lung): 3.28 µM; TGI (MDA-MB-231 breast): 30.1 µM; TGI (HOP-92 NSCLC): 4.25 µM; TGI (SK-MEL-2 melanoma): 31.5 µM; TGI (ACHN renal): 25.1 µM
